Ki and EC50 data for 29 compounds are collected here from patent US8518952B2, “6 substituted 2-heterocyclylamino pyrazine compounds as CHK-1 inhibitors” (Pfizer Inc., priority 2008, dated 2013).

As a reminder, the Ki is a dissociation constant, usually derived from enzyme kinetics or from competition with a known ligand. High values mean a looser hold on the target, low ones a stronger hold on the target. For orientation: EC50 means the concentration at which the effect is half-maximal. Higher therefore signals weaker potency.

For one assay, the target named is T1, CHK1 (kinase domain) (Homo sapiens, UniProt O14757).
T1 construct: a solution containing 1 nM of CHK1 (kinase domain)
T1 sequence (O14757 9-265 limits assumed): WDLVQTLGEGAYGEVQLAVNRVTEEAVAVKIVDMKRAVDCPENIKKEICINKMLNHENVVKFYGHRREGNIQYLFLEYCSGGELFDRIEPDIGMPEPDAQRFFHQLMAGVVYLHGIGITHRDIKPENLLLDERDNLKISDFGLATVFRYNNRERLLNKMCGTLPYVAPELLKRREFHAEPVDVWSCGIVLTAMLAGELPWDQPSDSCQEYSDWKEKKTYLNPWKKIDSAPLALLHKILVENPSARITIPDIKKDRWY
Briefly: CHK1 Ki determination, spectrophotometric coupled (pyruvate kinase/lactate dehydrogenase) assay. The class given is biochemical. The following applies: CHK-1 kinase domain; 150 uM ATP, 125 uM Syntide 2. The procedure, abridged: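 The CHK1 kinase domain was pre-incubated with compound for 15 min, and the reaction was started with 125 uM Syntide 2 and 150 uM ATP. ADP formation was coupled through pyruvate kinase/lactate dehydrogenase to NADH oxidation, read as the A340 decrease. Kiapp was fitted with a tight-binding equation that accounts for enzyme concentration and ATP Km; some entries are % inhibition.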

The subject of the next assay is Mia Paca-2 cells. Briefly: Histone H3 (Ser10) phosphorylation ELISA, abrogation of camptothecin-induced G2 arrest (CHK-1 cellular assay). The class given is cell-based. The following applies: camptothecin 8 hrs, then compound with nocodozole 16 hours. The method in brief: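 HeLa cells, or Mia Paca-2 where marked, were damaged with camptothecin for 8 h, then exposed to compound with nocodazole for 16 h. Mitotic entry was read as phospho-histone H3 (Ser10) by sandwich ELISA, with absorbance at 450 nm. EC50 came from four-parameter sigmoid fitting.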
In general terms: In an ELISA, binding on a coated surface is turned into a signal by an enzyme label.

Setting [1] is: Homo sapiens, Mia Paca-2 cells (entries marked *).
Where [2] appears, read: Homo sapiens, MIA PaCa-2, Mia Paca-2 cells (entries marked *).

Counter-ions that a name gives are not always drawn.

For the compound `C[C@@H]1CNC[C@@H]1Nc1cncc(-n2cnc3cc(OCC4(C)COC4)ccc32)n1` [Example 234, 6-{5-[(3-methyloxetan-3-yl)methoxy]-1H-benzimidazol-1-yl}-N-[(3R,4R)-4-methylpyrrolidin-3-yl]pyrazin-2-amine], the Ki on CHK1 (kinase domain) was 2.5 nM. This compound also registered an EC50 with Mia Paca-2 cells (setting [1]) of 89.9 nM.
On CHK1 (kinase domain), `Fc1ccn2c(-c3cncc(N[C@@H]4CCCNC4)n3)cnc2c1` [Example 235, 6-(7-fluoroimidazo[1,2-a]pyridin-3-yl)-N-[(3R)-piperidin-3-yl]pyrazin-2-amine] displayed a Ki of 6.8 nM. Besides, it took 67.9 nM to reach a half-maximal effect in the assay on Mia Paca-2 cells (setting [2]) (EC50).
As to `COC[C@@H]1C[C@@H](Nc2cncc(-c3cnc4cc(F)ccn34)n2)CN1` [Example 236, 6-(7-fluoroimidazo[1,2-a]pyridin-3-yl)-N-[(3R,5S)-5-(methoxymethyl)pyrrolidin-3-yl]pyrazin-2-amine], the Ki at CHK1 (kinase domain) was found to be 87.6 nM. Also, in the assay with Mia Paca-2 cells (setting [1]), the EC50 stood at 479 nM.
The like results for `Cc1cn2c(-c3cncc(N[C@H]4CN[C@H](CO)C4)n3)cnc2s1` [Example 237, [(2S,4R)-4-{[6-(2-methylimidazo[2,1-b][1,3]thiazol-5-yl)pyrazin-2-yl]amino}pyrrolidin-2-yl]methanol] were, in that order, 2.98 nM and 46.7 nM.
In the case of `OC[C@@H]1C[C@@H](Nc2cncc(-c3cnc4ccccn34)n2)CN1` [Example 238, [(2S,4R)-4-{[6-(imidazo[1,2-a]pyridin-3-yl)pyrazin-2-yl]amino}pyrrolidin-2-yl]methanol], affinity on CHK1 (kinase domain) was put at a Ki of 4.9 nM. In addition, it took 87.1 nM to reach a half-maximal effect with Mia Paca-2 cells (setting [1]) (EC50).
In the case of `COC[C@@H]1C[C@@H](Nc2cncc(-c3cnc4cc(C)ccn34)n2)CN1` [Example 239, N-[(3R,5S)-5-(methoxymethyl)pyrrolidin-3-yl]-6-(7-methylimidazo[1,2-a]pyridin-3-yl)pyrazin-2-amine], the Ki at CHK1 (kinase domain) turned out to be 72.2 nM. Also, in the assay on Mia Paca-2 cells (setting [1]), the EC50 is 201 nM.
On CHK1 (kinase domain), `Cc1ccn2c(-c3cncc(N[C@H]4CN[C@H](COC(C)C)C4)n3)cnc2c1` [Example 240, 6-(7-methylimidazo[1,2-a]pyridin-3-yl)-N-{(3R,5S)-5-[(propan-2-yloxy)methyl]pyrrolidin-3-yl}pyrazin-2-amine] showed an inhibition constant (Ki) of 61.6 nM. Also, it took 171 nM to reach a half-maximal effect in the assay on Mia Paca-2 cells (setting [1]) (EC50).
The like results for `CCOC[C@@H]1C[C@@H](Nc2cncc(-c3cnc4cc(C)ccn34)n2)CN1` [Example 241, N-[(3R,5S)-5-(ethoxymethyl)pyrrolidin-3-yl]-6-(7-methylimidazo[1,2-a]pyridin-3-yl)pyrazin-2-amine] were, in that order, 45 nM and 201 nM.
Turning to `COc1ccn2c(-c3cncc(N[C@H]4CN[C@H](COC(C)C)C4)n3)cnc2c1` [Example 242, 6-(7-methoxyimidazo[1,2-a]pyridin-3-yl)-N-{(3R,5S)-5-[(propan-2-yloxy)methyl]pyrrolidin-3-yl}pyrazin-2-amine], the affinity at CHK1 (kinase domain) corresponds to a Ki of 28 nM. This compound returned an EC50 in the assay with Mia Paca-2 cells (setting [1]) of 129 nM.
On to `CCOC[C@@H]1C[C@@H](Nc2cncc(-c3cnc4cc(OC)ccn34)n2)CN1` [Example 243, N-[(3R,5S)-5-(ethoxymethyl)pyrrolidin-3-yl]-6-(7-methoxyimidazo[1,2-a]pyridin-3-yl)pyrazin-2-amine], for which, on CHK1 (kinase domain), the inhibition constant Ki is 24.8 nM. This compound also registered an EC50 with Mia Paca-2 cells (setting [1]) of 172 nM.
At CHK1 (kinase domain), `COC[C@@H]1C[C@@H](Nc2cncc(-c3cnc4cc(Cl)ccn34)n2)CN1` [Example 244, 6-(7-chloroimidazo[1,2-a]pyridin-3-yl)-N-[(3R,5S)-5-(methoxymethyl)pyrrolidin-3-yl]pyrazin-2-amine] came in with a Ki of 15.9 nM. This compound also showed an EC50 in the assay with Mia Paca-2 cells (setting [1]) of 60.3 nM.
`OC[C@@H]1C[C@@H](Nc2cncc(-c3cnc4cc(Cl)ccn34)n2)CN1` [Example 245, [(2S,4R)-4-{[6-(7-chloroimidazo[1,2-a]pyridin-3-yl)pyrazin-2-yl]amino}pyrrolidin-2-yl]methanol] gave an inhibition constant (Ki) at CHK1 (kinase domain) of 4.72 nM. In the assay with Mia Paca-2 cells (setting [1]), this compound returned an EC50 of 85.9 nM.
For the compound `Cc1ncc(N[C@@H]2CCCNC2)nc1-c1cnc2ccccn12` [Example 247, 6-(imidazo[1,2-a]pyridin-3-yl)-5-methyl-N-[(3R)-piperidin-3-yl]pyrazin-2-amine], the Ki on CHK1 (kinase domain) is 192 nM. Moreover, a half-maximal response in the assay on Mia Paca-2 cells (setting [2]) (EC50) required 1110 nM.
The like results for `CO[C@@H]1CNC[C@@H](Nc2cncc(-c3cnc4ccccn34)n2)C1` [Example 250, 6-(imidazo[1,2-a]pyridin-3-yl)-N-[(3S,5S)-5-methoxypiperidin-3-yl]pyrazin-2-amine] were, in that order, 48.8 nM and 1620 nM.
In turn, `c1cn2ncc(-c3cncc(N[C@@H]4CCCNC4)n3)c2cn1` [Example 251, N-[(3R)-piperidin-3-yl]-6-(pyrazolo[1,5-a]pyrazin-3-yl)pyrazin-2-amine, acetate salt] had a Ki on CHK1 (kinase domain) of 10 nM. The compound also had an EC50 in the assay with Mia Paca-2 cells (setting [1]) of 255 nM.
The like results for `C[C@H]1NCCC[C@H]1Nc1cncc(-c2cnn3ccncc23)n1` [Example 252, N-[(2R,3R)-2-methylpiperidin-3-yl]-6-(pyrazolo[1,5-a]pyrazin-3-yl)pyrazin-2-amine, acetate salt] were, in that order, 69.3 nM and 1110 nM.
For the compound `C[C@@H]1CNC[C@@H]1Nc1cncc(-c2cnn3ccncc23)n1` [Example 253, N-[(3R,4R)-4-methylpyrrolidin-3-yl]-6-(pyrazolo[1,5-a]pyrazin-3-yl)pyrazin-2-amine, acetate salt], affinity at CHK1 (kinase domain) was put at a Ki of 85.6 nM. The same compound showed an EC50 with Mia Paca-2 cells (setting [1]) of 1030 nM.
On the same counts, the results for `Clc1cc2ncn(-c3cncc(N[C@@H]4CCCNC4)n3)c2cn1` [Example 254, 6-(6-chloro-3H-imidazo[4,5-c]pyridin-3-yl)-N-[(3R)-piperidin-3-yl]pyrazin-2-amine] are 28.3 nM and 542 nM.
The like results for `Clc1cc2c(cn1)ncn2-c1cncc(N[C@@H]2CCCNC2)n1` [Example 255, 6-(6-chloro-1H-imidazo[4,5-c]pyridin-1-yl)-N-[(3R)-piperidin-3-yl]pyrazin-2-amine] were, in that order, 34.5 nM and 597 nM.
On the same counts, the results for `CC(CO)(CO)COc1ccc2c(c1)ncn2-c1cncc(N[C@@H]2CCCNC2)n1` [Example 256, 2-methyl-2-{[(1-{6-[(3R)-piperidin-3-ylamino]pyrazin-2-yl}-1H-benzimidazol-5-yl)oxy]methyl}propane-1,3-diol] are 1.26 nM and 53.7 nM.
On to `CCOc1cc2c(cn1)ncn2-c1cncc(N[C@@H]2CCCNC2)n1` [Example 257, 6-(6-ethoxy-1H-imidazo[4,5-c]pyridin-1-yl)-N-[(3R)-piperidin-3-yl]pyrazin-2-amine], for which the Ki at CHK1 (kinase domain) amounted to 12.6 nM. In addition, the EC50 with Mia Paca-2 cells (setting [1]) worked out at 166 nM.
Compound `CCOc1cc2ncn(-c3cncc(N[C@@H]4CCCNC4)n3)c2cn1` [Example 258, 6-(6-ethoxy-3H-imidazo[4,5-c]pyridin-3-yl)-N-[(3R)-piperidin-3-yl]pyrazin-2-amine] had a Ki on CHK1 (kinase domain) of 4.38 nM. In addition, the EC50 with Mia Paca-2 cells (setting [1]) came to 98.4 nM.
Take `CO[C@H]1CCNC[C@@H]1Nc1cncc(-c2cnc3ccccn23)n1` [Example 259, 6-(imidazo[1,2-a]pyridin-3-yl)-N-[(3S,4S)-4-methoxypiperidin-3-yl]pyrazin-2-amine]: the Ki at CHK1 (kinase domain) stood at 3.82 nM. Moreover, the half-maximal effective concentration (EC50) in the assay on Mia Paca-2 cells (Mia Paca-2 cells (entries marked *)) stood at 38.8 nM.
Regarding `CO[C@@H]1CCNC[C@H]1Nc1cncc(-c2cnc3ccccn23)n1` [Example 260, 6-(imidazo[1,2-a]pyridin-3-yl)-N-[(3R,4R)-4-methoxypiperidin-3-yl]pyrazin-2-amine (HCl salt)], the Ki at CHK1 (kinase domain) was 233 nM. In addition, the EC50 with Mia Paca-2 cells (setting [2]) was found to be 549 nM.
At CHK1 (kinase domain), `COC[C@@H]1C[C@@H](Nc2cncc(-c3cnn4ccccc34)n2)CN1` [Example 261, N-[(3R,5S)-5-(methoxymethyl)pyrrolidin-3-yl]-6-(pyrazolo[1,5-a]pyridin-3-yl)pyrazin-2-amine] registered a Ki of 14.9 nM. The same compound registered an EC50 with Mia Paca-2 cells (setting [1]) of 37 nM.
The like results for `COc1ccn2c(-c3cncc(N[C@H]4C5CCN(CC5)[C@H]4C)n3)cnc2c1` [Example 265, (2S,3S)-N-[6-(7-methoxyimidazo[1,2-a]pyridin-3-yl)pyrazin-2-yl]-2-methyl-1-azabicyclo[2.2.2]octan-3-amine] were, in that order, 5.37 nM and 244 nM.
For `COC[C@@H]1C[C@@H](Nc2cncc(-c3cnc4ccc(F)cn34)n2)CN1` [Example 266, 6-(6-fluoroimidazo[1,2-a]pyridin-3-yl)-N-[(3R,5S)-5-(methoxymethyl)pyrrolidin-3-yl]pyrazin-2-amine], the Ki at CHK1 (kinase domain) worked out at 78.7 nM. Moreover, it took 548 nM to reach a half-maximal effect in the assay on Mia Paca-2 cells (setting [1]) (EC50).
On the same counts, the results for `CCOc1ccc2ncn(-c3cncc(N[C@H]4CN[C@H](COC)C4)n3)c2c1` [Example 268, 6-(6-ethoxy-1H-benzimidazol-1-yl)-N-[(3R,5S)-5-(methoxymethyl)pyrrolidin-3-yl]pyrazin-2-amine] are 65.8 nM and 1480 nM.
On the same counts, the results for `CCOc1ccc2c(c1)ncn2-c1cncc(N[C@H]2CN[C@H](COC)C2)n1` [Example 269, 6-(5-ethoxy-1H-benzimidazol-1-yl)-N-[(3R,5S)-5-(methoxymethyl)pyrrolidin-3-yl]pyrazin-2-amine] are 9.76 nM and 73 nM.
